In US20080107661A1, “MUC1 and ABL” (Dana-Farber Cancer Institute, Inc., priority 2006, published 2008):

Assays:
Type in all cases: cell-based, human
c-Abl [1] = experiment: Nuclear and cytosolic c-Abl in ZR-75-1/vector and ZR-75-1/MUC1siRNA cells after CDDP (fractionation, immunoblot)
Source text: (§1) Cell culture. Human HeLa cervical cancer cells, HCT116/vector (HCT116 colorectal carcinoma cells stably transfected with an empty vector), HCT116/MUC1 (HCT116 colorectal carcinoma cells stably transfected with an expression vector encoding a MUC1 polypeptide), HCT116/MUC1(Y46F) (HCT116 colorectal carcinoma cells stably transfected with an expression vector encoding a mutant MUC1 polypeptide containing an amino acid substitution at position 46 changing a tyrosine (Y) to phenylalanine (F)) colon cancer cells (Ren et al., (2002) J. Biol. Chem. 277: 17616-17622) and 293 cells were cultured in Dulbecco's modified medium with 10% heat-inactivated fetal bovine serum, 100 units/ml penicillin, 100 μg/ml streptomycin and 2 mM L-glutamine. Human ZR-75-1/vector (ZR-75-1 breast cancer cells stably transfected with an empty vector) and ZR-75-1/MUC1siRNA (ZR-75-1 breast cancer cells stably transfected with an expression vector encoding an siRNA specific for MUC1) breast cancer cells (Ren et al., (2004) Cancer Cell 5:163-175) were grown in RPMI1640 medium containing 10% heat-inactivated fetal bovine serum and antibiotics. Cells were treated with 1 μM adriamycin (ADR; Calbiochem), 100 μM cisplatin (CDDP; Sigma) or 10 μM STI571 (Gleevec; Novartis, Basel, Switzerland).
(§2) Subcellular fractionation. Nuclear fractions were prepared as described (Kharbanda et al., (1996) Cancer Res. 56:3617-3621). Cytosolic fractions were prepared as described (Hill et al., (2004) EMBO J. 23:2134-2145). Cell membrane fractions were prepared with the Plasma Membrane Extraction Kit (BioVision Research Products, Mountain View, Calif.). Mitochondria were purified as described (Ren et al., (2004) Cancer Cell 5:163-175; Ren et al., (2006) Oncogene 25:20-31).
Immunoprecipitations and immunoblot analysis. Cell lysates were prepared as described (Kharbanda et al., (1995) Nature 376:785-788); Yoshida et al., (2005) Nat. Cell Biol. 7:278-285). […] Intensity of the signals was determined by densitometric scanning. Statistical significance was determined by the Student's t-test.

c-Abl [2] = experiment: Nuclear targeting of c-Abl in HCT116/vector, HCT116/MUC1 and mutant cells after CDDP
Source text: as §1, §2
(§3) Immunoprecipitations and immunoblot analysis. Cell lysates were prepared as described (Kharbanda et al., (1995) Nature 376:785-788); Yoshida et al., (2005) Nat. Cell Biol. 7:278-285). Soluble proteins were incubated with anti-MUC1-N (Kufe et al., (1984) Hybridoma 3:223-232), anti-MUC1-C (Ab5; Neomarker, Montreal, Quebec), anti-Flag (Sigma, St. Louis, Mo.), anti-c-Abl (Ab3; Oncogene, San Diego, Calif.) or anti-14-3-3 (Abcam Inc., Cambridge, Mass.) antibodies for 2 hours at 4° C., followed by precipitation with protein G-Sepharose beads for 1 hour. […] Intensity of the signals was determined by densitometric scanning. Statistical significance was determined by the Student's t-test.

c-Abl [3] = experiment: Analysis of c-Abl kinase activity (anti-c-Abl immunoprecipitates, Crk(120-225), [γ-32P]ATP); conditions: HCT116 cells; CDDP, 1 hour
Protocol: Analysis of c-Abl kinase activity. Nuclear lysates were immunoprecipitated with anti-c-Abl (K-12) antibodies as described (Kharbanda et al., (1997) Nature 386:732-735). The precipitates were resuspended in kinase buffer (20 mM HEPES, pH 7.4, 10 mM MgCl2) containing [γ-^32P]ATP, GST-Crk(120-225) for 20 minutes at 30° C. The reaction products were analyzed by SDS-PAGE and autoradiography.

MUC1 and c-Abl = experiment: Co-immunoprecipitation of c-Abl with MUC1 (anti-MUC1-N precipitates) after CDDP; conditions: HCT116/MUC1 cells; CDDP, 1, 2 and 4 hours
Protocol: as §3, with “hour. Immune complexes and cell lysates (50 μg) were subjected to immunoblot analysis with anti-MUC1-N, anti-MUC1-C, anti-c-Abl (Calbiochem, San Diego, Calif.), anti-lamin B (Oncogene, San Diego, Calif.), anti-IκBα (Santa Cruz Biotechnology, Santa Cruz, Calif.), anti-GFP (BD Biosciences, San Jose, Calif.), anti-Flag (Sigma, St. Louis, […].), anti-β-actin (Sigma, St. Louis, Mo.), anti-phospho-c-Abl-[…] (Cell Signaling Technology), anti-14-3-3 (Santa Cruz Biotechnology, Santa Cruz, Calif.), anti-PKC5 (Santa Cruz Biotechnology), anti-HSP60 (BD Biosciences, San Jose, Calif.), anti-PCNA (Oncogene), or anti-calnexin (Stressgen, San Diego, Calif.) antibodies.” for “hour.”

c-Abl kinase activity (c-Abl [3]): induction of c-Abl activity
binding of MUC1 with c-Abl (MUC1 and c-Abl): increased binding of MUC1
SMILES: [NH2][Pt]([NH2])([Cl])[Cl] [CDDP, cisplatin]
cytosolic c-Abl (c-Abl [1]; ZR-75-1/MUC1siRNA cells): decreased
increase of nuclear targeting of c-Abl (c-Abl [1]; ZR-75-1/MUC1siRNA cells silenced for MUC1, 2 and 4 hours): about 6 fold
nuclear targeting of c-Abl (c-Abl [1]; ZR-75-1/vector cells, 2 and 4 hours): no detectable targeting of c-Abl to the nucleus
CDDP-induced targeting of cytosolic c-Abl to the nucleus (c-Abl [2]; HCT116/MUC1(Y46F) cells, CDDP, 0, 2 or 4 hours): blocked CDDP-induced targeting of cytosolic c-Abl to the nucleus
effect of MUC1(Y60F) on CDDP-induced targeting of c-Abl to the nucleus (c-Abl [2]; HCT116/MUC1(Y60F) cells, CDDP, 2 and 4 hours): little if any effect
nuclear targeting of c-Abl (c-Abl [2]; HCT116/MUC1 cells, CDDP, 2 and 4 hours): blocked nuclear targeting of c-Abl
nuclear targeting of c-Abl (c-Abl [2]; HCT116/vector cells, CDDP, 2 and 4 hours): c-Abl was targeted to the nucleus
